{"source": "patent EP4563146A1", "about": "(IRBM S.P.A., priority 2023, dated 2025)", "key": {"[1]": {"target": "T1, West Nile Virus (WNV) NS2B-NS3 protease (West Nile virus, UniProt Q9Q6P4)", "T1 construct": "NS2B1423-1470); purchased R&D 2907-SE-020", "T1 sequence (Q9Q6P4 1423-1470)": "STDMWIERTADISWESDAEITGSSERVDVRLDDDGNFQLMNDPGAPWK", "T1 sequence (Q9Q6P4 1506-1689)": "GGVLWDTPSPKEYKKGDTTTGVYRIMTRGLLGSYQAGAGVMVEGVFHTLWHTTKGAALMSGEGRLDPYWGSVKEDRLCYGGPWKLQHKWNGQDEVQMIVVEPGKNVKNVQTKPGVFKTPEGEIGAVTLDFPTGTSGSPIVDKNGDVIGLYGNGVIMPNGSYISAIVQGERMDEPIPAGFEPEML", "experiment": "WNV protease inhibition assay", "format": "biochemical", "conditions": "Table 4; letter codes for IC50", "description": "WNV protease inhibition assay"}, "ZIKV replicon": {"test_system": "ZIKV replicon", "experiment": "ZIKV replication inhibition assay (NanoLuc replicon in Vero cells)", "conditions": "Zika virus, Vero, 72 h"}, "[2]": {"conditions": "read-out: ZIKA Cell_Nanoluc, Vero cells with stable ZIKV replicon, 72 h, Nano-Glo readout"}}, "note": "Where two headings read alike, the source gives them in different places.", "data": [{"smiles": "COc1cc(NC(=O)[N-]c2c[n+](Cc3ccc(-c4c(C)ncnc4C)cc3)no2)ccn1", "note": "[Example 209, (3-(4-(4,6-Dimethylpyrimidin-5-yl)benzyl)-1,2,3-oxadiazol-3-ium-5-yl)((2-methoxypyridin-4-yl)carbamoyl)amide]", "values": [{"measurement": "IC50", "setting": "[1]", "result": "100 to 1000", "unit": "nM"}, {"measurement": "EC50", "setting": "ZIKV replicon; [2]", "result": "1000 to 20000", "unit": "nM"}]}, {"smiles": "Cc1nc(-c2ccc(C[n+]3cc([N-]C(=O)Nc4ccnc(C(F)(F)F)c4)on3)cc2)cs1", "note": "[Example 210, (3-(4-(2-Methylthiazol-4-yl)benzyl)-1,2,3-oxadiazol-3-ium-5-yl)((2-(trifluoromethyl)pyridin-4-yl)carbamoyl)amide]", "values": [{"measurement": "IC50", "setting": "[1]", "result": "100 to 1000", "unit": "nM"}, {"measurement": "EC50", "setting": "ZIKV replicon; [2]", "result": "1000 to 20000", "unit": "nM"}]}, {"smiles": "Cc1nsc(C)c1-c1ccc(C[n+]2cc([N-]C(=O)Nc3ccnc(C(F)(F)F)c3)on2)cc1", "note": "[Example 211, (3-(4-(3,5-Dimethylisothiazol-4-yl)benzyl)-1,2,3-oxadiazol-3-ium-5-yl)((2-(trifluoromethyl)-pyridin-4-yl)carbamoyl)amide]", "values": [{"measurement": "IC50", "setting": "[1]", "result": "100 to 1000", "unit": "nM"}, {"measurement": "EC50", "setting": "ZIKV replicon; [2]", "result": "1000 to 20000", "unit": "nM"}]}, {"smiles": "Cc1cccc(CC(=O)Nc2cc(NC(=O)[N-]c3c[n+]([C@H]4CC[C@H](CN(C)C)CC4)no3)cc(C(F)(F)F)c2)c1C", "note": "[Example 212, (3-((1R,4R)-4-((Dimethylamino)methyl)-cyclohexyl)-1,2,3-oxadiazol-3-ium-5-yl)((3-(2-(2,3-dimethylphenyl)acetamido)-5-(trifluoromethyl)phenyl)carbamoyl)amide]", "values": [{"measurement": "IC50", "setting": "[1]", "result": "100 to 1000", "unit": "nM"}, {"measurement": "EC50", "setting": "ZIKV replicon; read-out: ZIKA Cell_Nanoluc", "result": "1000 to 20000", "unit": "nM"}]}, {"smiles": "Cc1ccccc1CC(=O)Nc1cc(NC(=O)[N-]c2c[n+]([C@H]3CCC[C@@H](CN(C)C)C3)no2)cc(C(F)(F)F)c1", "note": "[Example 213, (3-((1S,3R)-3-((Dimethylamino)methyl)-cyclohexyl)-1,2,3-oxadiazol-3-ium-5-yl)((3-(2-(o-tolyl)acetamido)-5-(trifluoromethyl)phenyl)carbamoyl)amide]", "values": [{"measurement": "IC50", "setting": "[1]", "result": "100 to 1000", "unit": "nM"}, {"measurement": "EC50", "setting": "ZIKV replicon; [2]", "result": "1000 to 20000", "unit": "nM"}]}, {"smiles": "Cc1ccccc1CC(=O)Nc1cc(NC(=O)[N-]c2c[n+]([C@@H]3CCC[C@H](O)C3)no2)cc(C(F)(F)F)c1", "note": "[Example 214, (3-((1R,3S)-3-Hydroxycyclohexyl)-1,2,3-oxadiazol-3-ium-5-yl)((3-(2-(o-tolyl)acetamido)-5-(trifluoromethyl)phenyl)carbamoyl)amide]", "values": [{"measurement": "IC50", "setting": "[1]", "result": "100 to 1000", "unit": "nM"}, {"measurement": "EC50", "setting": "ZIKV replicon; [2]", "result": "1000 to 20000", "unit": "nM"}]}, {"smiles": "Cc1ccccc1CC(=O)Nc1cc(NC(=O)[N-]c2c[n+]([C@@H]3CCC[C@@H](O)C3)no2)cc(C(F)(F)F)c1", "note": "[Example 215, (3-((1R,3R)-3-Hydroxycyclohexyl)-1,2,3-oxadiazol-3-ium-5-yl)((3-(2-(o-tolyl)acetamido)-5-(trifluoromethyl)phenyl)carbamoyl)amide]", "values": [{"measurement": "IC50", "setting": "[1]", "result": "< 100", "unit": "nM"}, {"measurement": "EC50", "setting": "ZIKV replicon; [2]", "result": "< 100", "unit": "nM"}]}, {"smiles": "Cc1ncnc(C)c1C1=CCC(C[n+]2cc([N-]C(=O)Nc3ccnc(C(F)(F)F)c3)on2)CC1", "note": "(centres unmarked) [Example 216, (3-((4-(4,6-Dimethylpyrimidin-5-yl)cyclohex-3-en-1-yl)methyl)-1,2,3-oxadiazol-3-ium-5-yl)((2-(trifluoromethyl)pyridin-4-yl)carbamoyl)amide]", "values": [{"measurement": "IC50", "setting": "[1]", "result": "100 to 1000", "unit": "nM"}, {"measurement": "EC50", "setting": "ZIKV replicon; [2]", "result": "1000 to 20000", "unit": "nM"}]}, {"smiles": "Cc1ccccc1CC(=O)Nc1cc(NC(=O)[N-]c2c[n+](C[C@H]3CCCC[C@H]3O)no2)cc(C(F)(F)F)c1", "note": "[Example 217, (3-(((1R,2R)-2Hydroxycyclohexyl)methyl)-1,2,3-oxadiazol-3-ium-5-yl)((3-(2-(o-tolyl)acetamido)-5-(trifluoromethyl)phenyl)-carbamoyl)amide]", "values": [{"measurement": "IC50", "setting": "[1]", "result": "< 100", "unit": "nM"}, {"measurement": "EC50", "setting": "ZIKV replicon; [2]", "result": "< 100", "unit": "nM"}]}, {"smiles": "Cc1ccccc1CC(=O)Nc1cc(NC(=O)[N-]c2c[n+](C[C@@H]3CCCC[C@H]3O)no2)cc(C(F)(F)F)c1", "note": "[Example 218, (3-(((1S,2R)-2-Hydroxycyclohexyl)methyl)-1,2,3-oxadiazol-3-ium-5-yl)((3-(2-(o-tolyl)acetamido)-5-(trifluoromethyl)phenyl)-carbamoyl)amide]", "values": [{"measurement": "IC50", "setting": "[1]", "result": "100 to 1000", "unit": "nM"}, {"measurement": "EC50", "setting": "ZIKV replicon; [2]", "result": "100 to 1000", "unit": "nM"}]}, {"smiles": "O=C([N-]c1c[n+]([C@H]2CCC[C@H](c3cncnc3)C2)no1)Nc1ccnc(C(F)(F)F)c1", "note": "[Example 219, (3-((1S,3S)-3-(Pyrimidin-5-yl)cyclohexyl)-1,2,3-oxadiazol-3-ium-5-yl)((2-(trifluoromethyl)pyridin-4-yl)carbamoyl)amide]", "values": [{"measurement": "IC50", "setting": "[1]", "result": "100 to 1000", "unit": "nM"}, {"measurement": "EC50", "setting": "ZIKV replicon; [2]", "result": "1000 to 20000", "unit": "nM"}]}, {"smiles": "O=C([N-]c1c[n+]([C@H]2CCC[C@@H](c3cncnc3)C2)no1)Nc1ccnc(C(F)(F)F)c1", "note": "[Example 220, (3-((1S,3R)-3-(Pyrimidin-5-yl)cyclohexyl)-1,2,3-oxadiazol-3-ium-5-yl)((2-(trifluoromethyl)-pyridin-4-yl)carbamoyl)amide]", "values": [{"measurement": "IC50", "setting": "[1]", "result": "100 to 1000", "unit": "nM"}, {"measurement": "EC50", "setting": "ZIKV replicon; [2]", "result": "100 to 1000", "unit": "nM"}]}, {"smiles": "Cc1ccccc1CC(=O)Nc1cc(NC(=O)[N-]c2c[n+]([C@H]3CCC[C@H](c4cncnc4)C3)no2)cc(C(F)(F)F)c1", "note": "[Example 221, (3-((1S,3S)-3-(Pyrimidin-5-yl)cyclohexyl)-1,2,3-oxadiazol-3-ium-5-yl)((3-(2-(o-tolyl)acetamido)-5-(trifluoromethyl)phenyl)carbamoyl)amide]", "values": [{"measurement": "IC50", "setting": "[1]", "result": "100 to 1000", "unit": "nM"}, {"measurement": "EC50", "setting": "ZIKV replicon; [2]", "result": "1000 to 20000", "unit": "nM"}]}, {"smiles": "Cc1ccccc1CC(=O)Nc1cc(NC(=O)[N-]c2c[n+]([C@H]3CCC[C@@H](c4cncnc4)C3)no2)cc(C(F)(F)F)c1", "note": "[Example 222, (3-((1S,3R)-3-(Pyrimidin-5-yl)cyclohexyl)-1,2,3-oxadiazol-3-ium-5-yl)((3-(2-(o-tolyl)acetamido)-5-(trifluoromethyl)phenyl)-carbamoyl)amide]", "values": [{"measurement": "IC50", "setting": "[1]", "result": "< 100", "unit": "nM"}, {"measurement": "EC50", "setting": "ZIKV replicon; [2]", "result": "100 to 1000", "unit": "nM"}]}, {"smiles": "COC(=O)[C@H]1CCC[C@@H]([n+]2cc([N-]C(=O)Nc3cc(NC(=O)Cc4ccccc4C)cc(C(F)(F)F)c3)on2)C1", "note": "[Example 223, (3-((1R,3S)-3-(Methoxycarbonyl)cyclohexyl)-1,2,3-oxadiazol-3-ium-5-yl)((3-(2-(o-tolyl)acetamido)-5-(trifluoromethyl)phenyl)-carbamoyl)amide]", "values": [{"measurement": "IC50", "setting": "[1]", "result": "< 100", "unit": "nM"}, {"measurement": "EC50", "setting": "ZIKV replicon; [2]", "result": "< 100", "unit": "nM"}]}, {"smiles": "COC(=O)[C@@H]1CCC[C@@H]([n+]2cc([N-]C(=O)Nc3cc(NC(=O)Cc4ccccc4C)cc(C(F)(F)F)c3)on2)C1", "note": "[Example 224, (3-((1R,3R)-3-(Methoxycarbonyl)cyclohexyl)-1,2,3-oxadiazol-3-ium-5-yl)((3-(2-(o-tolyl)-acetamido)-5-(trifluoromethyl)phenyl)-carbamoyl)amide]", "values": [{"measurement": "IC50", "setting": "[1]", "result": "< 100", "unit": "nM"}, {"measurement": "EC50", "setting": "ZIKV replicon; [2]", "result": "< 100", "unit": "nM"}]}, {"smiles": "Cc1ncncc1-c1ccc(C[n+]2cc([N-]C(=O)Nc3ccnc(C(F)(F)F)c3)on2)cc1", "note": "[Example 225, (3-(4-(4-Methylpyrimidin-5-yl)benzyl)-1,2,3-oxadiazol-3-ium-5-yl)((2-(trifluoromethyl)pyridin-4-yl)carbamoyl)amide]", "values": [{"measurement": "IC50", "setting": "[1]", "result": "100 to 1000", "unit": "nM"}, {"measurement": "EC50", "setting": "ZIKV replicon; [2]", "result": "100 to 1000", "unit": "nM"}]}, {"smiles": "Cc1ncnc(C)c1-c1ccc(C[n+]2cc([N-]C(=O)Nc3ccnc(C(C)(C)C)c3)on2)cc1", "note": "[Example 226, ((2-(tert-Butyl)pyridin-4-yl)carbamoyl)(3-(4-(4,6-dimethylpyrimidin-5-yl)benzyl)-1,2,3-oxadiazol-3-ium-5-yl)amide]", "values": [{"measurement": "IC50", "setting": "[1]", "result": "< 100", "unit": "nM"}, {"measurement": "EC50", "setting": "ZIKV replicon; [2]", "result": "1000 to 20000", "unit": "nM"}]}, {"smiles": "COC(=O)[C@H]1CC[C@H]([n+]2cc([N-]C(=O)Nc3cc(NC(=O)Cc4ccccc4C)cc(C(F)(F)F)c3)on2)CC1", "note": "[Example 227, (3-((1R,4R)-4-(Methoxycarbonyl)cyclohexyl)-1,2,3-oxadiazol-3-ium-5-yl)((3-(2-(o-tolyl)-acetamido)-5-(trifluoromethyl)phenyl)carbamoyl) amide]", "values": [{"measurement": "IC50", "setting": "[1]", "result": "< 100", "unit": "nM"}, {"measurement": "EC50", "setting": "ZIKV replicon; read-out: ZIKA Cell_Nanoluc", "result": "1000 to 20000", "unit": "nM"}]}]}
